# In US20240002397A1, “3-AMINO PYRROLIDINE AND PIPERIDINE MACROCYCLIC OREXIN RECEPTOR AGONISTS” (Merck Sharp & Dohme LLC, priority 2020, published 2024):
# Molecular target: T1, human OX2R (Homo sapiens, UniProt O43614)
# T1 sequence (O43614 1-444): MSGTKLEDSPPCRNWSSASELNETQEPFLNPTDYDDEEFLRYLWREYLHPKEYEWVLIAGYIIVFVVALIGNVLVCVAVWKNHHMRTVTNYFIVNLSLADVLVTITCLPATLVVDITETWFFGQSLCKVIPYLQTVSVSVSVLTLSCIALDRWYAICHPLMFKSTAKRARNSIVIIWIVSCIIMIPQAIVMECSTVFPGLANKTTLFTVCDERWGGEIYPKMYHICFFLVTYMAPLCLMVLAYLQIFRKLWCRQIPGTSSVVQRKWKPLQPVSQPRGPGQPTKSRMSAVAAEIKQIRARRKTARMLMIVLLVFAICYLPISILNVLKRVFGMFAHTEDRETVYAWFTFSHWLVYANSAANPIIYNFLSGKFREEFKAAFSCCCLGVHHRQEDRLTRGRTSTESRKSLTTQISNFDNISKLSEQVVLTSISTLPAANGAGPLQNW
# Test: IPOne (IP-1) orexin receptor agonist assay in CHO cells expressing human OX2R
# Settings: CHO, hOX2R IP-One; percentage of mean max effect of a reference compound at 1 uM with 100% activity
row,SMILES,Emax [%]
1,"COC[C@@H]1C[C@H](NS(C)(=O)=O)C2COC3CCC(CC3)c3nc(ccc3C(F)(F)F)OCCOC(=O)N21 (some centres unmarked) [Example 87, N-((2^1S,2^4S,5^2R,5^3S,5^5S)-5^5-(methoxymethyl)-6-oxo-1^3-(trifluoromethyl)-3,7,10-trioxa-1(2,6)-pyridina-5(2,1)-pyrrolidina-2(1,4)-cyclohexanacyclodecaphane-5^3-yl)methanesulfonamide]",100
2,"COc1cc2nc(c1)[C@H]1CC[C@H](CC1)OC[C@H]1[C@@H](NS(C)(=O)=O)C[C@@H](C)N1C(=O)OCCCN2 [Example 88, N-((2^1S,2^4S,5^2R,5^3S,5^5R)-1^4-methoxy-5^5-methyl-6-oxo-3,7-dioxa-11-aza-1(2,6)-pyridina-5(2,1)-pyrrolidina-2(1,4)-cyclohexanacycloundecaphane-5^3-yl)methanesulfonamide]",103
3,"C[C@@H]1C[C@H](NS(C)(=O)=O)C2COC3CCC(CC3)c3cc(C(F)(F)F)cc(n3)N(C)CCCOC(=O)N21 (some centres unmarked) [Example 89, N-((2^1S,2^4S,5^2R,5^3S,5^5R)-5^5,1^1-dimethyl-6-oxo-1^4-(trifluoromethyl)-3,7-dioxa-11-aza-1(2,6)-pyridina-5(2,1)-pyrrolidina-2(1,4)-cyclohexanacycloundecaphane-5^3-yl)methanesulfonamide]",101
4,"C[C@@H]1C[C@H](NS(C)(=O)=O)C2COC3CCC(CC3)c3cccc(n3)NCCCOC(=O)N21 (some centres unmarked) [Example 90, N-((2^1S,2^4S,5^2R,5^3S,5^5R)-5^5-methyl-6-oxo-3,7-dioxa-11-aza-1(2,6)-pyridina-5(2,1)-pyrrolidina-2(1,4)-cyclohexanacycloundecaphane-5^3-yl)methanesulfonamide]",101
5,"C[C@@H]1C[C@H](NS(C)(=O)=O)C2COC3CCC(CC3)c3cccc(n3)N(C)CCCOC(=O)N21 (some centres unmarked) [Example 91, N-((2^1S,2^4S,5^2R, 5^3S,5^5R)-5^5,^11-dimethyl-6-oxo-3,7-dioxa-11-aza-1(2,6)-pyridina-5(2,1)-pyrrolidina-2(1,4)-cyclohexanacycloundecaphane-5^3-yl)methanesulfonamide]",102
6,"C[C@@H]1C[C@H](NS(C)(=O)=O)C2COC3CCC(CC3)c3ccc(F)c(n3)NCCOC(=O)N21 (some centres unmarked) [Example 92, N-((2^1S,2^4S,5^2R,5^3S,5^5R)-1^5-fluoro-5^5-methyl-6-oxo-3,7-dioxa-10-aza-1(2,6)-pyridina-5(2,1)-pyrrolidina-2(1,4)-cyclohexanacyclodecaphane-5^3-yl)methanesulfonamide]",98.9
7,"C[C@@H]1C[C@H](NS(C)(=O)=O)C2COC3CCC(CC3)c3ccc(F)c(n3)NCCCOC(=O)N21 (some centres unmarked) [Example 93, N-((2^1S,2^4S,5^2R,5^3S,5^5R)-1^5-fluoro-5^5-methyl-6-oxo-3,7-dioxa-11-aza-1(2,6)-pyridina-5(2,1)-pyrrolidina-2(1,4)-cyclohexanacycloundecaphane-5^3-yl)methanesulfonamide]",103
8,"C[C@@H]1C[C@H](NS(C)(=O)=O)C2COC3CCC(CC3)c3nc(ccc3C(F)(F)F)N(C)CCCOC(=O)N21 (some centres unmarked) [Example 94, N-((2^1S,2^4S,5^2R,5^3S,5^5R)-5^5,1^1-dimethyl-6-oxo-1^3-(trifluoromethyl)-3,7-dioxa-11-aza-1(2,6)-pyridina-5(2,1)-pyrrolidina-2(1,4)-cyclohexanacycloundecaphane-5^3-yl)methanesulfonamid]",37.5
9,"COc1cc2nc(c1)N(C)CCCOC(=O)N1C(COC3CCC2CC3)[C@@H](NS(C)(=O)=O)C[C@H]1C (some centres unmarked) [Example 95, N-((2^1S,2^4S,5^2R,5^3S,5^5R)-1^4-methoxy-5^5,1^1-dimethyl-6-oxo-3,7-dioxa-11-aza-1(2,6)-pyridina-5(2,1)-pyrrolidina-2(1,4)-cyclohexanacycloundecaphane-5^3-yl)methanesulfonamide]",98.4
10,"CS(=O)(=O)N[C@H]1C[C@@H](CO)N2C(=O)OCCOc3ccc(C(F)(F)F)c(n3)[C@H]3CC[C@H](CC3)OC[C@@H]12 [Example 96, N-((2^1R,2^4R,5^2R,5^3S,5^5S)-5^5-(hydroxymethyl)-6-oxo-1^3-(trifluoromethyl)-3,7,10-trioxa-1(2,6)-pyridina-5(2,1)-pyrrolidina-2(1,4)-cyclohexanacyclodecaphane-5^3-yl)methanesulfonamide]",100
11,"CN(C)C[C@@H]1C[C@H](NS(C)(=O)=O)[C@@H]2CO[C@H]3CC[C@H](CC3)c3nc(ccc3C(F)(F)F)OCCOC(=O)N12 [Example 98, N-((2^1R,2^4R,5^2R,5^3S,5^5S)-5^5-((dimethylamino)methyl)-6-oxo-1^3-(trifluoromethyl)-3,7,10-trioxa-1(2,6)-pyridina-5(2,1)-pyrrolidina-2(1,4)-cyclohexanacyclodecaphane-5^3-yl)methanesulfonamide]",100
12,"CS(=O)(=O)N[C@H]1C[C@@H](CC(N)=O)N2C(=O)OCCOc3ccc(C(F)(F)F)c(n3)C3CCC(CC3)OCC12 (some centres unmarked) [Example 99, 2-((2^1R,2^4R,5^2R,5^3S,5^5S)-5^3-(methylsulfonamido)-6-oxo-1^3-(trifluoromethyl)-3,7,10-trioxa-1(2,6)-pyridina-5(2,1)-pyrrolidina-2(1,4)-cyclohexanacyclodecaphane-5^5-yl)acetamide]",100

# Further lines, results first:
row,Emax [%],SMILES
1,101,"COC[C@@H]1C[C@H](NS(C)(=O)=O)C2COC3CCC(CC3)c3cc(C(F)(F)F)cc(n3)OCCOC(=O)N21 (some centres unmarked) [Example 84, N-((2^1S,2^4S,5^2R,5^3S,5^5S)-5^5-(methoxymethyl)-6-oxo-1^4-(trifluoromethyl)-3,7,10-trioxa-1(2,6)-pyridina-5(2,1)-pyrrolidina-2(1,4)-cyclohexanacyclodecaphane-5^3-yl)methanesulfonamide]"
2,102,"COC[C@@H]1C[C@H](NS(C)(=O)=O)C2COC3CCC(CC3)c3cc(C(F)F)cc(n3)OCCCOC(=O)N21 (some centres unmarked) [Example 85, N-((2^1S,2^4S,5^2R,5^3S,5^5S)-14-(difluoromethyl)-5^5-(methoxymethyl)-6-oxo-3,7,11-trioxa-1(2,6)-pyridina-5(2,1)-pyrrolidina-2(1,4)-cyclohexanacycloundecaphane-5^3-yl)methanesulfonamide]"
3,101,"C[C@@H]1C[C@H](NS(C)(=O)=O)C2COC3CCC(CC3)c3cc(C(F)F)cc(n3)OCCCOC(=O)N21 (some centres unmarked) [Example 86, N-((2^1S,2^4S,5^2R,5^3S,5^5R)-1^4-(difluoromethyl)-5^5-methyl-6-oxo-3,7,11-trioxa-1(2,6)-pyridina-5(2,1)-pyrrolidina-2(1,4)-cyclohexanacycloundecaphane-5^3-yl)methanesulfonamide]"
4,98.4,"CS(=O)(=O)N[C@H]1C[C@@H](CO)N2C(=O)OCCCOc3cc(C(F)F)cc(n3)C3CCC(CC3)OCC12 (some centres unmarked) [Example 97, N-((2^1S,2^4S,5^2R,5^3S,5^5S)-1^4-(difluoromethyl)-5^5-(hydroxymethyl)-6-oxo-3,7,11-trioxa-1(2,6)-pyridina-5(2,1)-pyrrolidina-2(1,4)-cyclohexanacycloundecaphane-5^3-yl)methanesulfonamide]"
5,102,"CN(C)C[C@@H]1C[C@H](NS(C)(=O)=O)C2COC3CCC(CC3)c3cc(C(F)F)cc(n3)OCCCOC(=O)N21 (some centres unmarked) [Example 100, N-((2^1S,2^4S,5^2R,5^3S,5^5S)-1^4-(difluoromethyl)-5^5-((dimethylamino)methyl)-6-oxo-3,7,11-trioxa-1(2,6)-pyridina-5(2,1)-pyrrolidina-2(1,4)-cyclohexanacycloundecaphane-5^3-yl)methanesulfonamide]"
